Measured values: patent publication US20210163896A1, “METHOD FOR PRODUCING ANIMAL CELL CONTAINING DNA OF INTEREST USING MICRONUCLEATE CELL FUSION METHOD” (NATIONAL UNIVERSITY CORPORATION TOTTORI UNIVERSITY, priority 2018, published 2021)

Experiments:
CHO MHG#4a cells = experiment: Micronucleation induction in CHO cells, fluorescence-microscopic observation; type: cell-based, Chinese hamster; conditions: 72 hours, paclitaxel 0-1920 nM, reversine 0-12288 nM
Procedure: Ninety six conditions, which were designed by combinations of paclitaxel (0 nM, 96 nM, 192 nM, 384 nM, 768 nM, 1152 nM, 1536 nM, 1920 nM) and reversine (0 nM, 192 nM, 384 nM, 768 nM, 1536 nM, 3072 nM, 4608 nM, 6144 nM, 7680 nM, 9216 nM, 10752 nM, 12288 nM), were assigned to the wells. Culture was carried out at 37° C. in the condition of 5% CO2 for 72 hours.
After micronucleation induction, the micronucleation induction rates were compared based on observation by fluorescence microscopy.

Human iPS cells = experiment: Micronucleation induction in human iPS cells, microscopic observation; type: cell-based; conditions: 48 hours, MAS 0.2 μg/mL compared to colcemid 0.25 μg/mL, paclitaxel 20-400 nM, reversine 0-1500 nM added
Procedure: Human iPS cells were seeded to a 6-well plate previously coated with 0.5 μg/cm^2 Laminin™-511 (Nippi. Inc.) at a density of 5×10^5 cells per well, and 10 μM Y-27632 was added. The human iPS cells were incubated at 37° C. in the condition of 5% CO2 for 24 hours. For a micronucleation induction experiment, 22 conditions in total were designed based on treatments with colcemid 0.25 μg/mL, MAS 0.2 μg/mL or paclitaxel (20 nM, 40 nM, 60 nM, 100 nM, 400 nM) with the addition of reversine (no addition, 500 nM, 1000 nM, 1500 nM) during the treatments, and the cells were cultured at 37° C. in the condition of 5% CO2 for 48 hours.
After micronucleation induction, the micronucleation induction rates were compared based on microscopic observation.

[1] = test system: Human immortalized mesenchymal stem cells (hiMSC); experiment: Micronucleation induction in human immortalized mesenchymal stem cells, DAPI staining; type: cell-based; conditions: 48 hours
Procedure: Human immortalized mesenchymal stem cells (hiMSC: provided by Dr. Toguchida, Kyoto University) were seeded in individual wells of a 6-well plate at a density of 5×10^5 cells per well and cultured at 37° C. in the condition of 5% CO2 for 24 hours. For the micro nucleation induction experiment, 26 conditions in total were designed based on treatments with colcemid (0.05 μg/mL, 0.1 μg/mL, 0.2 μg/mL), MAS (0.1 μg/mL, 0.2 μg/mL, 0.4 μg/mL) and paclitaxel (0.8 nM, 4 nM, 20 nM, 100 nM, 400 nM), with the addition of reversine (no addition, 500 nM, 1000 nM, 1500 nM) during the treatments, and the cells were cultured at 37° C. in the condition of 5% CO2 for 48 hours.
In order to observe living cells after micronucleation induction, the cells were fixed with 4% paraformaldehyde and stained with DAPI (concentration: 1 μg/mL) for 15 minutes. The fixed cells were observed by fluorescence microscopy and the micronuclear formation induction rates were compared. Whether or not micronuclei were formed in individual cells was observed and the results are shown in a figure (FIG. 2).

Row | SMILES | micronucleation rate (CHO MHG#4a cells) | micronucleation induction rate (Human iPS cells) | micronucleation induction, usefulness of agent [1]
1 | CC(=O)O[C@H]1C(=O)[C@@]2(C)[C@H]([C@H](OC(=O)c3ccccc3)[C@]3(O)C[C@H](OC(=O)[C@H](O)[C@@H](NC(=O)c4ccccc4)c4ccccc4)C(C)=C1C3(C)C)[C@]1(OC(C)=O)CO[C@@H]1C[C@@H]2O [paclitaxel] | micronucleation rate increases in a concentration dependent manner | micronucleation rate increases in a concentration dependent manner | effective
2 | c1nc2nc(Nc3ccc(N4CCOCC4)cc3)nc(NC3CCCCC3)c2[nH]1 [reversine] | micronucleation rate increases in a concentration dependent manner | useful | useful
